Measurements as given in article PMC3726044 (Biochemistry, 2013).

T1: ChsE2 (Rv3543c), tagless, expressed from the cistronic construct pigr5 (Mycobacterium tuberculosis H37Rv, UniProt P71858 1-387)
T1 sequence: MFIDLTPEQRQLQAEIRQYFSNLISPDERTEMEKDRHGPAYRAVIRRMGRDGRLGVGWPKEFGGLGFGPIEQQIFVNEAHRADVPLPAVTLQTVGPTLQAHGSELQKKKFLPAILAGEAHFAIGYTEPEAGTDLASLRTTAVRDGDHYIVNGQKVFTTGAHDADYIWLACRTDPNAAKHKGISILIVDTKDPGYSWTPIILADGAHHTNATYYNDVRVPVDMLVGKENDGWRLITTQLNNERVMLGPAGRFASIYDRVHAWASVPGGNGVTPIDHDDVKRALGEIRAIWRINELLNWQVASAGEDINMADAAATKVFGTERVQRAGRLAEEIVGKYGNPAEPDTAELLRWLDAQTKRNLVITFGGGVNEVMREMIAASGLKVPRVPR

B1: ChsE1 (Rv3544c), N-terminal His6 tagged, expressed from the cistronic construct pigr5 (enzyme)
chain: MDFDPTAEQQAVADVVTSVLERDISWEALVCGGVTALPVPERLGGDGVGLFEVGALLTEVGRHGAVTPALATLGLGVVPLLELASAEQQDRFLAGVAKGGVLTAALNEPGAALPDRPATSFVGGRLSGTKVGVGYAEQADWMLVTADNAVVVVSPTADGVRMVRTPTSNGSDEYVMTMDGVAVADCDILADVAAHRVNQLALAVMGAYADGLVAGALRLTADYVANRKQFGKPLSTFQTVAAQLAEVYIASRTIDLVAKSVIWRLAEDLDAGDDLGVLGYWVTSQAPPAMQICHHLHGGMGMDVTYPMHRYYSTIKDLTRLLGGPSHRLELLGARCSLT

Columns and labels:
ChsE1-ChsE2 = ChsE1-ChsE2 (Mycobacterium tuberculosis, UniProt P71857+P71858)
[1] = biological target: T1, ChsE2 (Rv3543c), tagless, expressed …; assay: pull-down

Molecule	LC/UV/MS of released flavin (m/z 786), UV-visible spectrum (ChsE1-ChsE2)	binding result [1]
Cc1cc2nc3c(=O)[nH]c(=O)nc-3n(C[C@H](O)[C@H](O)[C@H](O)COP(=O)(O)OP(=O)(O)OC[C@H]3O[C@@H](n4cnc5c(N)ncnc54)[C@H](O)[C@@H]3O)c2cc1C [FAD]	ChsE1-ChsE2 is isolated as a holoprotein with FAD cofactor	
B1		binds
